According to US20190307770A1, “METHODS FOR TREATING OR PREVENTING CANCER IN A KRAS-VARIANT PATIENT AND FOR […] OF […] PRIMARY BREAST TUMORS” (MIRADX, priority 2014, published 2019):

Legend:
[1] = system: MCF10A KRAS-variant+/- (MT) cell lines; assay: Anchorage independent growth (soft agar colony formation) as measure of transformation; format: cell-based, human; conditions: for level of transformation in anchorage independent growth assay: KRAS-variant (L1 and L2) versus parental (WT) MCF10A lines, comparison of anti-estrogen treatments and estrogen; for fold increased colony formation rate: KRAS-variant MCF10A lines, grown without EGF
Protocol: Anchorage independent growth was assessed as described previously (Sweasy et al. (2005) PNAS 102:14350-5). After thawing and growing cells until confluence in EGF supplemented media (20 ng/ml), cells were plated into conditions of study for two passages. For estrogen depletion experiments phenol red free DMEM/F12 medium (Invitrogen) and 5% charcoal-stripped horse serum (Thermo Fisher) were used, and Tamoxifen or estrogen was added to a final concentration of 1 μM after the first passage, as appropriate. To plate, 100 μl of MCF10A (WT) or (MT) cells at a density of 400,000 cells/ml were mixed with 2 ml of media for the condition under study containing 2 ml 0.7% noble agar (USB). 1 ml of the cell mixture was added to 1 ml of 1.0% noble agar in a well of a 6-well dish. Cells were fed twice weekly by layering on a 50:50 mixture of media with 0.7% agar for 2 weeks, followed by only media for two-three additional weeks. The number of colonies present in each of ten microscope fields per well from a total of 3 wells per experiment was counted to evaluate transformation and is reported as an average of the 2 separate MT lines.
Next, WT and MT lines were plated in soft agar to test for transformation, as measured by anchorage independent growth. […] The impact of estrogen withdrawal on this transformation was next evaluated by the use of charcoal stripped serum, tamoxifen, or a combination of the two. […] These findings biologically confirm wide spread transformation in normal breast epithelium with acute estrogen withdrawal in breast cells with the KRAS-variant.
Next, different forms of estrogen inhibitors were tested to determine their effects on transformation in the presence of the KRAS-variant. Tamoxifen (ER antagonist in breast), anastrozole (aromatase inhibitor, inhibiting estrogen synthesis), and fulvestrant (a complete ER antagonist) were administered to parental (WT) or two KRAS-variant (L1 and L2) MCF10A cell lines and anchorage independent growth was assessed using the colony formation assay described above.

[2] = post-menopausal use of estrogen alone, median follow up 11.8 years; CI 0.62-0.95, p 0.02; cited from earlier work

| Compound | colonies formed relative to the anastrozole or fulvestrant treatments ([1]; KRAS-variant (L1 and L2) MCF10A lines, FIG. 5) | level of transformation in anchorage independent growth assay ([1]; FIG. 5) | fold increased colony formation rate ([1]; Tamoxifen combined with charcoal stripped media) | fold increased colony formation rate ([1]; in the presence of Tamoxifen (1 μM final)) | breast cancer incidence versus placebo, HR [2] | level of transformation in anchorage independent growth assay ([1]; FIG. 5, listed as Estrogen) | transformation (colony formation) after return of estrogen to charcoal-stripped media ([1]; KRAS-variant MT cell lines, charcoal-stripped media, estrogen 1 μM, p=0.018, FIG. 4) |
| --- | --- | --- | --- | --- | --- | --- | --- |
| CC/C(=C(\c1ccccc1)c1ccc(OCCN(C)C)cc1)c1ccccc1 [Tamoxifen] | ~10 times | highest level of transformation | 7.9 fold | 2 fold | – | – | – |
| estrogen | – | prevented transformation | – | – | 0.77 | prevents transformation | decreased transformation |
